“And” between values parts separate entries of the source, which are not always exact repeats. Equal entries are not always repeated.

The target of the first test is T1, CepR (Burkholderia cenocepacia, UniProt B4EMD0).
T1 sequence (B4EMD0 1-239): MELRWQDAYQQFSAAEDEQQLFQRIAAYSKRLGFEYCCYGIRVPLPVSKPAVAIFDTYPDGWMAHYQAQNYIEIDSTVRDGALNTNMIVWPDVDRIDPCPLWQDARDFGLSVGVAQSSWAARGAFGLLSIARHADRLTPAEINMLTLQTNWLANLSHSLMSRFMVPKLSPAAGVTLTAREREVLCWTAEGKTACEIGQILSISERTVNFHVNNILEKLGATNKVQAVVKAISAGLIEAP
Kind of test: CepR agonism in E. coli β-galactosidase reporter (Ec-reporter) JLD271 [pJN105-cepR + pSC11-cepI]. The class given is cell-based, B. cenocepacia. The settings on record: Ec- vs Bm-reporter. The procedure, abridged:
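E. coli JLD271 (ΔsdiA) carrying arabinose-inducible CepR (27 mM L-arabinose) and cepI-lacZ fusion, grown 4 h with compound; β-galactosidase measured by CPRG cleavage at 37 °C (~30 min), normalized to OD600. Agonism compared with C8-AHL at 100 μM; screen at 100 μM or solubility limit, then dose-response; ≥3 trials.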
As for `CCCCCCCC(=O)N[C@H]1CCOC1=O` [Compound C8-AHL, N-octanoyl L-homoserine lactone, reference compound], the “EC50 fold higher in the Ec-reporter than in the Bm-reporter” value is ~ 10 fold.

Staying with this test, now noted: Ec-reporter.
Turning to `CCCCCCCS(=O)(=O)N[C@H]1CCOC1=O` [Compound A12], the “CepR agonism in words” value is “failed to activate CepR”.

The test is the same for the next values; noted with them: Ec-reporter, agonism dose-response.
What is called EC50 is the concentration needed to bring the measured effect to its halfway point. Consider `CCCCCC(O)CC(=O)N[C@H]1CCOC1=O` (stereo partly shown) [3’OH-C8-AHL, reference compound], for which the EC50 came out at 0.21 µM.

Turning to `CCCCCCCC(=O)N[C@H]1CCOC1=O` [Compound C8-AHL, N-octanoyl L-homoserine lactone, reference compound], the 50% effective concentration (EC50) was 0.005 µM and 0.0057 µM.

In the case of `O=C(CCc1ccc(I)cc1)N[C@H]1CCOC1=O` [Compound E32], the 50% effective concentration (EC50) is 0.0011 µM.

On to `O=C(CCc1ccc(C(F)(F)F)cc1)N[C@H]1CCOC1=O` [Compound E35], for which the half-maximal effective concentration (EC50) is 0.00018 µM and the “EC50 (nM)” value is “sub-nanomolar”.

For the compound `O=C(CCc1ccc([N+](=O)[O-])cc1)N[C@H]1CCOC1=O` [Compound E37], the EC50 turned out to be 0.00019 µM and the “EC50 (nM)” value was “sub-nanomolar”.

The same test, now with this note: Ec-reporter; activity for 100 μM C8-AHL set to 100%; error ±10%.
As for `CCCCCC(O)CC(=O)N[C@H]1CCOC1=O` (stereo partly shown) [3’OH-C8-AHL, reference compound], the “Maximal Activation (%)” value amounted to 84%.

The same test, now with this note: Ec-reporter; activity for 100 μM C8-AHL set to 100%; error ±10%; read-out: Maximal Activation (%).
`CCCCCCCS(=O)(=O)N[C@H]1CCOC1=O` [Compound A12]: the Emax was determined as 46%.

Take `CCCCCCCC(=O)N[C@H]1CCOC1=O` [Compound C8-AHL, N-octanoyl L-homoserine lactone, reference compound]: the Emax was found to be 100%.

With `O=C(CCc1ccc(I)cc1)N[C@H]1CCOC1=O` [Compound E32], the Emax turned out to be 97%.

For `O=C(CCc1ccc(C(F)(F)F)cc1)N[C@H]1CCOC1=O` [Compound E35], the Emax was 100%.

With `O=C(CCc1ccc([N+](=O)[O-])cc1)N[C@H]1CCOC1=O` [Compound E37], the Emax came to 95%.

Still in this test, the particulars now being: Table S2, Ec-reporter; screening conc. 100 μM.
`CCCCCC(O)CC(=O)N[C@H]1CCOC1=O` (stereo partly shown) [3’OH-C8-AHL, reference compound]: the Act% is 84%.

For `CCCCCCCS(=O)(=O)N[C@H]1CCOC1=O` [Compound A12], the activation at 100 µM was 46%.

On to `O=C(CC1CCCC1)N[C@H]1CCOC1=O` [Compound B12], for which the activation at 100 µM turned out to be 39%.

With `CCCCCCCC(=O)N[C@H]1CCOC1=O` [Compound C8-AHL, N-octanoyl L-homoserine lactone, reference compound], the activation at 100 µM came out at 100%.

Consider `O=C(Cc1cccc(Br)c1)N[C@H]1CCOC1=O` [Compound C8], for which the Act% is listed as 12%.

Take `O=C(Cc1cccc(C(F)(F)F)c1)N[C@H]1CCOC1=O` [Compound E3]: the activation at 100 µM amounted to 6.6%.

As to `O=C(CCc1ccc(I)cc1)N[C@H]1CCOC1=O` [Compound E32], the activation at 100 µM came out at 97%.

Regarding `O=C(CCc1ccc(C(F)(F)F)cc1)N[C@H]1CCOC1=O` [Compound E35], the activation at 100 µM turned out to be 100%.

In the case of `O=C(CCc1ccc([N+](=O)[O-])cc1)N[C@H]1CCOC1=O` [Compound E37], the activation at 100 µM was found to be 95%.

In the next test the target is T1, CepR. Kind of test: CepR antagonism in E. coli β-galactosidase reporter (Ec-reporter), competition against C8-AHL. The class given is cell-based, B. cenocepacia. The settings on record: Ec-reporter; against 10 nM C8-AHL. An outline of the steps: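 CepR antagonism was measured in E. coli JLD271 (∆sdiA) carrying pJN105-cepR, which expresses B. cenocepacia CepR from an arabinose-inducible pBAD promoter, and pSC11-cepI, which fuses lacZ to the cepI promoter. Induced cells were grown 4 h with compound and 10 nM C8-AHL. β-Galactosidase activity was then read by CPRG cleavage at 37 °C after Z Buffer permeabilization.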
By IC50 is commonly meant the point on the concentration scale where inhibition reaches its midpoint. Read a low IC50 as greater potency in that assay. With `CCCCCCCS(=O)(=O)N[C@H]1CCOC1=O` [Compound A12], the IC50 amounted to 0.38 µM and the “Maximal Inhibition (%)” value stood at 68%.

For the compound `O=C(CC1CCCC1)N[C@H]1CCOC1=O` [Compound B12], the IC50 turned out to be 3.7 µM and the “Maximal Inhibition (%)” value amounted to 69%.

As to `O=C(Cc1cccc(Br)c1)N[C@H]1CCOC1=O` [Compound C8], the half-maximal inhibitory concentration (IC50) came out at 2.7 µM and the “Maximal Inhibition (%)” value worked out at 79%.

Regarding `O=C(Cc1cccc(C(F)(F)F)c1)N[C@H]1CCOC1=O` [Compound E3], the IC50 turned out to be 3.3 µM and the “Maximal Inhibition (%)” value worked out at 77%.

The test is the same for the next values; noted with them: Table S3, Ec-reporter; screening conc. 100 μM; against 10 nM C8-AHL.
For `CCCCCC(O)CC(=O)N[C@H]1CCOC1=O` (stereo partly shown) [3’OH-C8-AHL, reference compound], the “Inh% (100-Act%)” value is given as -20%.

Still in this test, the particulars now being: Table S3, Ec-reporter; screening conc. 100 μM; against 10 nM C8-AHL; read-out: Inh% (100-Act%).
Turning to `CCCCCCCC(=O)N[C@H]1CCOC1=O` [Compound C8-AHL, N-octanoyl L-homoserine lactone, reference compound], the inhibition at 100 µM is -30%.

Regarding `O=C(CCc1ccc(I)cc1)N[C@H]1CCOC1=O` [Compound E32], the inhibition at 100 µM was -20%.

Take `O=C(CCc1ccc(C(F)(F)F)cc1)N[C@H]1CCOC1=O` [Compound E35]: the inhibition at 100 µM is -50%.

Consider `O=C(CCc1ccc([N+](=O)[O-])cc1)N[C@H]1CCOC1=O` [Compound E37], for which the inhibition at 100 µM is -30%.

A further test concerns B. multivorans ATCC17616. Description: C. elegans survival assay, B. multivorans infection. It counts as in vivo. Conditions: C. elegans N2 infected with B. multivorans; 1 μM for agonists; relative to untreated worms. From the text:
We next assessed the effects of our lead CepR modulators on exacerbating or alleviating infections by a Bcc member using the nematode C. elegans as a model of pathogenicity. We infected N2 nematodes with B. multivorans ATCC17616 in the presence of compound, and assessed survival of worms over time (see Methods)[13],[35],[53]. None of the compounds tested caused measurable toxicity effects in uninfected worms under these conditions. […] Our results here, using chemical CepR modulators, appear to replicate these effects in B. multivorans nematode infections.
The C. elegans survival assay was based on previously reported procedures[35],[65]. To synchronize worms, eggs were harvested by hypochlorite bleaching (5 min in 1 mL 5% bleach, 0.25 mL 5 M NaOH, 3.75 mL H2O), and grown on Nematode Growth Media (NGM) + E. coli OP50 at 21 °C. B. multivorans was grown overnight with the compound of interest in LB medium (1 μM for agonists, 50 μM for antagonists), and then the overnight culture was centrifuged, resuspended in the assay medium, standardized to OD600 = 0.8, and 25 μL of this culture was used per condition. CFUs of these standardized cultures were used to confirm that bacteria numbers were relatively the same. For the survival assay, synchronized worms (L4 stage) were suspended in liquid NGM media containing bacteria and compound in 96-well plates (100 μL total volume). […] Plates were incubated at 25 °C, after which they were analyzed by a dissecting microscope. The fraction of dead worms was determined by scoring the number of dead worms and the total number of worms in each well. At least 30 nematodes were used for each well, and each assay was performed at least in duplicate on a single day (n ≥ 60). Survival assays were then repeated at least once on different days to verify patterns. Compound effect on worm survival rarely varied between replicates, but the overall worm susceptibility varied among assays. Kaplan-Meier survival curves were calculated using GraphPad Prism (v. 7.0) software.
On to `CCCCCC(O)CC(=O)N[C@H]1CCOC1=O` (stereo partly shown) [3’OH-C8-AHL, reference compound], for which the “Effect on survival of Bm-infected worms (agonists)” value (“Effect on survival … (agonists)” below) is recorded as “did not appear to affect worm survival”.

As to `CCCCCCCC(=O)N[C@H]1CCOC1=O` [Compound C8-AHL, N-octanoyl L-homoserine lactone, reference compound], the “Effect on survival … (agonists)” value was “significantly increased worm death”.

Consider `O=C(CCc1ccc([N+](=O)[O-])cc1)N[C@H]1CCOC1=O` [Compound E37], for which the “Effect on survival … (agonists)” value is on record as “promoted worm killing”.

Still in this test, the particulars now being: C. elegans N2 infected with B. multivorans; 50 μM for antagonists.
`O=C(CC1CCCC1)N[C@H]1CCOC1=O` [Compound B12]: the “Effect on survival of Bm-infected worms (antagonists)” value (“Effect on survival … (antagonists)” for short) is reported as “prolonged nematode survival”.

`O=C(Cc1cccc(Br)c1)N[C@H]1CCOC1=O` [Compound C8]: the “Effect on survival … (antagonists)” value is on record as “prolonged nematode survival”.

For the compound `O=C(Cc1cccc(C(F)(F)F)c1)N[C@H]1CCOC1=O` [Compound E3], the “Effect on survival … (antagonists)” value is given as “prolonged nematode survival”.

(Values after publication PMC6748986, “Potent modulation of the CepR quorum sensing receptor and virulence in a Burkholderia cepacia complex member using non-native lactone ligands” (Scientific Reports, 2019).)
